Data as given in patent publication US6451814B1, “Heterocyclic β-3 adrenergic receptor agonists” (Wyeth, priority 2000, dated 2002).
Where “and” joins values, the source holds several entries; their conditions need not be identical. Identical values can stand only once. Like-named read-outs stand apart in the source and are kept apart here.

What was measured:
[1] = molecular target: T1, human β3-adrenergic receptor (Homo sapiens, UniProt P13945); assay: cAMP response (SPA kit) in CHO cells transfected with human β3 adrenergic receptor; assay type: cell-based; details: for EC50: CHO cells expressing human β3-AR, 10^-9 M to 10^-5 M, 30 min at 37° C., cAMP by SPA; for IA(β3): maximal response of compound compared to maximal response of isoproterenol at 10^-5 M, CHO cells, human β3-AR
T1 construct: Full length β3 AR clones (402 amino acids) containing the last 6 amino acids of hβ3—AR are prepared; expressed in transfected cells; host or cells: CHO cells
T1 sequence (P13945 whole entry): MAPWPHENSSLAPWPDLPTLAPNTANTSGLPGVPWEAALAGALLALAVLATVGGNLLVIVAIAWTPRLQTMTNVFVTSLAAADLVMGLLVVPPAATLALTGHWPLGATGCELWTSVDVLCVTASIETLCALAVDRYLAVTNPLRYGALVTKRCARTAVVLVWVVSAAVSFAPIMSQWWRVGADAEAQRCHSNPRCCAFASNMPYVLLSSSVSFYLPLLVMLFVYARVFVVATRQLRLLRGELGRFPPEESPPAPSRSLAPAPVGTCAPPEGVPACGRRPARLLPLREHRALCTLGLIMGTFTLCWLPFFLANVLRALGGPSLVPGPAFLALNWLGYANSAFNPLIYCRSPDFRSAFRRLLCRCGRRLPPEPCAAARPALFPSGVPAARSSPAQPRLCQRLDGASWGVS

| EC50 ([1]; read-out: EC50(β3)) | IA(β3) [1] | melting point [°C] | SMILES | EC50 ([1]; EC50(β3, μM)) [µM] |
| --- | --- | --- | --- | --- |
| 0.029 µM | 0.92 | 141 to 143 | CCCCCCNC(=O)Nc1ccc(CNC(=O)N2CCC(Nc3ccc(CCNC[C@H](O)COc4ccc(O)cc4)cc3)CC2)cc1 [Example 67, 4-(4-{2-[(2S)-2-Hydroxy-3-(4-hydroxy-phenoxy)-propylamino]-ethyl}-phenylamino)-piperidine-1-carboxylic Acid 4-(3-hexyl-ureido)-benzylamide] | – |
| 0.085 µM | 0.97 | 87 to 89 | O=C([C@@H]1CCCN1S(=O)(=O)c1ccc(F)cc1)N1CCC(Nc2ccc(CCNC[C@H](O)COc3ccc(O)cc3)cc2)CC1 [Example 104, [(2S)-1-(4-Fluoro-benzenesulfonyl)-pyrrolidin-2-yl]-[4-(4-{2-[(2S)-2-hydroxy-3-(4-hydroxy-phenoxy)-propylamino]-ethyl}-phenylamino)-piperidin-1-yl]-methanone] | – |
| 0.066 µM | 0.9 | 100 to 102 | O=C(c1cc2cccc([N+](=O)[O-])c2[nH]1)N1CCC(Nc2ccc(CCNC[C@H](O)COc3ccc(O)cc3)cc2)CC1 [Example 95, [4-(4-{2-[(2S)-2-Hydroxy-3-(4-hydroxy-phenoxy)-propylamino]-ethyl}-phenylamino)-piperidin-1-yl]-(7-nitro-1H-indol-2-yl)-methanone] | – |
| 0.009 µM | 1.08 | 90 to 92 | O=C(c1c[nH]c2ccccc12)N1CCC(Nc2ccc(CCNC[C@H](O)COc3ccc(O)cc3)cc2)CC1 [Example 99, [4-(4-{2-[(2S)-2-Hydroxy-3-(4-hydroxy-phenoxy)-propylamino]-ethyl}-phenylamino)-piperidin-1-yl]-(1H-indol-3-yl)-methanone] | – |
| – | 0.94 | 60 to 62 | COc1ccc(CCCCNC(=O)N2CCC(Nc3ccc(CCNCC(O)COc4ccc(O)cc4)cc3)CC2)cc1OC (stereo not shown) [Example 57, 4-(4-{2-[2-Hydroxy-3-(4-hydroxy-phenoxy)-propylamino]-ethyl}-phenylamino)-piperidine-1-carboxylic Acid [4-(3,4-dimethoxy-phenyl)-butyl]-amide] | – |
| 0.008 µM | 1.03 | 118 to 120 | CS(=O)(=O)Nc1cc([C@@H](O)CNCCc2ccc(NC3CCN(c4ccc(S(=O)(=O)N5CCCCC5)cc4)CC3)cc2)ccc1O [Example 119] | – |
| 0.106 µM | 1 | 76 to 78 | O=C(NCC1CCCC1)N1CCC(Nc2ccc(CCNC[C@H](O)COc3ccc(O)cc3)cc2)CC1 [Example 70, 4-(4-{2-[(2S)-2-Hydroxy-3-(4-hydroxy-phenoxy)-propylamino]-ethyl}-phenylamino)-piperidine-1-carboxylic Acid Cyclopentylmethyl-amide] | – |
| 0.039 µM | 1.1 | 69 to 71 | O=C(NCCCC1CCCCC1)N1CCC(Nc2ccc(CCNC[C@H](O)COc3ccc(O)cc3)cc2)CC1 [Example 68, 4-(4-{2-[(2S)-2-Hydroxy-3-(4-hydroxy-phenoxy)-propylamino]-ethyl}-phenylamino)-piperidine-1-carboxylic Acid (3-cyclohexyl-propyl)-amide] | – |
| 0.012 µM | 0.45 | 113 to 115 | CCCCCCCCNC(=O)N1CCC(Nc2ccc(CCNC[C@H](O)COc3cccc4[nH]c(=O)[nH]c34)cc2)CC1 [Example 60, 4-(4-{2-[(2S)-2-Hydroxy-3-(2-oxo-2,3-dihydro-1H-benzoimidazol-4-yloxy)-propylamino]-ethyl}-phenylamino)-piperidine-1-carboxylic Acidoctylamide] | – |

More lines, now with the values behind:

| SMILES | EC50 ([1]; read-out: EC50(β3)) | IA(β3) [1] | melting point [°C] | EC50 ([1]; EC50(β3, μM)) [µM] |
| --- | --- | --- | --- | --- |
| CC(C)CCNC(=O)N1CCC(Nc2ccc(CCNC[C@H](O)COc3ccc(O)cc3)cc2)CC1 [Example 35, 4-(4-{2-[(2S)-2-Hydroxy-3-(4-hydroxy-phenoxy)-propylamino]-ethyl}-phenylamino)-piperidine-1-carboxylic Acid (3-methyl-butyl)-amide] | 0.133 µM | 0.96 | 72 to 77 | – |
| O=C(NCc1ccccc1C(F)(F)F)N1CCC(Nc2ccc(CCNC[C@H](O)COc3ccc(O)cc3)cc2)CC1 [Example 33, 4-(4-{2-[(2S)-2-Hydroxy-3-(4-hydroxy-phenoxy)-propylamino]-ethyl}-phenylamino)-piperidine-1-carboxylic Acid 2-trifluoromethyl-benzylamide] | 0.055 µM | 0.78 | 83 to 86 | – |
| CN(C)C(=O)Oc1ccc(CCNC(=O)N2CCC(Nc3ccc(CCNC[C@H](O)COc4ccc(O)cc4)cc3)CC2)cc1 [Example 74, Dimethyl-carbamic Acid 4-(2-{[4-(4-{2-[(2S)-2-hydroxy-3-(4-hydroxy-phenoxy)-propylamino]-ethyl}-phenylamino)-piperidine-1-carbonyl]-amino}-ethyl)-phenyl Ester] | – | 0.88 | 86 to 88 | 0.045 |
| O=C(NCC(c1ccccc1)c1ccccc1)N1CCC(Nc2ccc(CCNC[C@H](O)COc3ccc(O)cc3)cc2)CC1 [Example 31, 4-(4-{2-[(2S)-2-Hydroxy-3-(4-hydroxy-phenoxy)-propylamino]-ethyl}-phenylamino)-piperidine-1-carboxylic Acid (2,2-diphenyl-ethyl)-amide] | 0.136 µM and 0.068 µM | 0.69 and 0.4 | 91 to 94 | – |
| O=C(NCCc1ccc(F)cc1)N1CCC(Nc2ccc(CCNC[C@H](O)COc3ccc(O)cc3)cc2)CC1 [Example 15, 4-(4-{2-[(2S)-2-Hydroxy-3-(4-hydroxy-phenoxy)-propylamino]-ethyl}-phenylamino)-piperidine-1-carboxylic Acid [2-(4-fluoro-phenyl)-ethyl]-amide] | 0.034 µM | 0.91 | 73 to 77 | – |
| O=C(NCc1ccc(F)cc1)N1CCC(Nc2ccc(OCCNC[C@H](O)COc3ccc(O)cc3)cc2)CC1 [Example 39, 4-(4-{2-[(2S)-2-Hydroxy-3-(4-hydroxy-phenoxy)-propylamino]-ethoxy}-phenylamino)-piperidine-1-carboxylic Acid 4-fluoro-benzylamide] | 0.036 µM | 0.9 | 73 to 77 | – |
| NC(=O)N1CCC(Nc2ccc(CCNC[C@H](O)COc3ccc(O)cc3)cc2)CC1 [Example 18, 4-(4-{2-[(2S)-2-Hydroxy-3-(4-hydroxy-phenoxy)-propylamino]-ethyl}-phenylamino)-piperidine-1-carboxylic Acid Amide] | – | 1 | 84 to 89 | – |
| CCCCCCCCNC(=O)N1CCC(S(=O)(=O)c2ccc(CCNC[C@H](O)COc3ccc(O)c(C)c3)cc2)CC1 [Example 48, 4-(4-{2-[(2S)-2-Hydroxy-3-(4-hydroxy-3-methyl-phenoxy)-propylamino]-ethyl}-benzenesulfonyl)-piperidine-1-carboxylic Acid Octylamide] | 0.05 µM | 0.7 | 58 to 71 | – |
| O=C(Nc1ccccc1)N1CCC(Sc2ccc(CCNC[C@H](O)COc3ccc(O)cc3)cc2)CC1 [Example 40, 4-(4-{2-[(2S)-2-Hydroxy-3-(4-hydroxy-phenoxy)-propylamino]-ethyl}-phenylsulfanyl)-piperidine-1-carboxylic Acid Phenylamide] | 0.101 µM | 0.9 | 121 | – |
